# Source: patent US20220119354A1, “DIAMINO-SUBSTITUTED PYRIDINES AND PYRIMIDINES AS HERBICIDES” (FMC Corporation, priority 2019, published 2022)
# Assays:
# Format in all cases: in vivo
# [1] = tested on: ragweed (common ragweed, Ambrosia elatior); test: Test A postemergence, ragweed; conditions: 0 to 100 scale; for Plant response rating, Ragweed: 0 no effect, 100 complete control
# Summary of the method: (§1)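 Ratings reflect visual comparison with untreated controls roughly 10 d after greenhouse application, 0 meaning no effect and 100 complete control. Treatment was by directed soil spray at planting or by spray onto one- to two-leaf plants in loam/sand pots.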
# rice (Oryza sativa) = test: Test B flooded paddy test, rice; conditions: Flood, 250 g ai/ha, applied to paddy water, 2-leaf stage, visual evaluation after 13 to 15 d
# Summary of the method: (§2)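 Visual injury scores run from 0 (no effect) to 100 (complete control), assigned by comparison with controls 13 to 15 d after treatment. Treatment went into floodwater standing 3 cm over the soil of pots holding 2-leaf plants.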
# [2] = tested on: pigweed (Amaranthus retroflexus); test: Test A postemergence, pigweed; conditions: 0 to 100 scale; for Plant response rating, Pigweed: 0 no effect, 100 complete control
# Summary of the method: as §1
# [3] = tested on: pigweed (Amaranthus retroflexus); test: Test A preemergence, pigweed; conditions: 0 to 100 scale; for Pigweed plant response rating: 0 is no effect, 100 is complete control
# Summary of the method: as §1
# [4] = tested on: sedge, umbrella (small-flower umbrella sedge, Cyperus difformis); test: Test B flooded paddy test, umbrella sedge; conditions: Flood, 250 g ai/ha, applied to paddy water, 2-leaf stage, visual evaluation after 13 to 15 d
# Summary of the method: as §2
# [5] = tested on: barnyardgrass (Echinochloa crus-galli); test: Test B flooded paddy test, barnyardgrass; conditions: Flood, 250 g ai/ha, applied to paddy water, 2-leaf stage, visual evaluation after 13 to 15 d
# Summary of the method: as §2
# kochia (Kochia scoparia) [6] = test: Test A preemergence, kochia; conditions: 0 to 100 scale; for Kochia plant response rating: 0 is no effect, 100 is complete control
# Summary of the method: as §1
# [7] = tested on: ryegrass, Italian (Lolium multiflorum); test: Test A preemergence, Italian ryegrass; conditions: 0 to 100 scale; for Ryegrass, Italian plant response rating: 0 is no effect, 100 is complete control
# Summary of the method: as §1
# [8] = tested on: wheat (Triticum aestivum); test: Test A postemergence, wheat; conditions: 0 to 100 scale; for Plant response rating, Wheat: 0 no effect, 100 complete control
# Summary of the method: as §1
# kochia (Kochia scoparia) [9] = test: Test A postemergence, kochia; conditions: 0 to 100 scale; for Plant response rating, Kochia: 0 no effect, 100 complete control
# Summary of the method: as §1
# corn (Zea mays) = test: Test A postemergence, corn; conditions: 0 to 100 scale; for Plant response rating, Corn: 0 no effect, 100 complete control
# Summary of the method: as §1
# [10] = tested on: ragweed (common ragweed, Ambrosia elatior); test: Test A preemergence, ragweed; conditions: 0 to 100 scale; for Ragweed plant response rating: 0 is no effect, 100 is complete control
# Summary of the method: as §1
# [11] = tested on: ryegrass, Italian (Lolium multiflorum); test: Test A postemergence, Italian ryegrass; conditions: 0 to 100 scale; for Plant response rating, Ryegrass, Italian: 0 no effect, 100 complete control
# Summary of the method: as §1
# [12] = tested on: barnyardgrass (Echinochloa crus-galli); test: Test A preemergence, barnyardgrass; conditions: 0 to 100 scale; for Barnyardgrass plant response rating: 0 is no effect, 100 is complete control
# Summary of the method: as §1
# [13] = tested on: galium (catchweed bedstraw, Galium aparine); test: Test A postemergence, galium; conditions: 0 to 100 scale; for Plant response rating, Galium: 0 no effect, 100 complete control
# Summary of the method: as §1
# [14] = tested on: barnyardgrass (Echinochloa crus-galli); test: Test A postemergence, barnyardgrass; conditions: 0 to 100 scale; for Plant response rating, Barnyardgrass: 0 no effect, 100 complete control
# Summary of the method: as §1
# [15] = tested on: foxtail, giant (Setaria faberii); test: Test A preemergence, giant foxtail; conditions: 0 to 100 scale; for Foxtail, Giant plant response rating: 0 is no effect, 100 is complete control
# Summary of the method: as §1
# [16] = tested on: blackgrass (Alopecurus myosuroides); test: Test A postemergence, blackgrass; conditions: 0 to 100 scale; for Plant response rating, Blackgrass: 0 no effect, 100 complete control
# Summary of the method: as §1
# [17] = tested on: foxtail, giant (Setaria faberii); test: Test A postemergence, giant foxtail; conditions: 0 to 100 scale; for Plant response rating, Foxtail, Giant: 0 no effect, 100 complete control
# Summary of the method: as §1
# [18] = tested on: ducksalad (Heteranthera limosa); test: Test B flooded paddy test, ducksalad; conditions: Flood, 250 g ai/ha, applied to paddy water, 2-leaf stage, visual evaluation after 13 to 15 d
# Summary of the method: as §2
smiles,measurement,setting,value
Nc1nc(N[C@H](c2coc3ccccc23)C2CC2)ncc1C(F)(F)F [Compound 78],"Plant response rating, Ragweed",[1]; 125 g ai/ha,0
same,"Plant response rating, Ragweed",[1]; 500 g ai/ha,0
same,"Plant response rating, Rice (0 to 100 scale, 0 is no effect, 100 is complete control)",rice (Oryza sativa),0
same,"Plant response rating, Pigweed",[2]; 125 g ai/ha,60
same,"Plant response rating, Pigweed",[2]; 500 g ai/ha,70
same,Pigweed plant response rating,[3]; 125 g ai/ha,0
same,Pigweed plant response rating,[3]; 500 g ai/ha,20
same,"Plant response rating, Sedge, Umbrella (0 to 100 scale, 0 is no effect, 100 is complete control)",[4],0
same,"Plant response rating, Barnyardgrass (0 to 100 scale, 0 is no effect, 100 is complete control)",[5],0
same,Kochia plant response rating,kochia (Kochia scoparia) [6]; 125 g ai/ha,80
same,Kochia plant response rating,kochia (Kochia scoparia) [6]; 500 g ai/ha,90
same,"Ryegrass, Italian plant response rating",[7]; 125 g ai/ha,20
same,"Ryegrass, Italian plant response rating",[7]; 500 g ai/ha,50
same,"Plant response rating, Wheat",[8]; 125 g ai/ha,0
same,"Plant response rating, Wheat",[8]; 500 g ai/ha,0
same,"Plant response rating, Kochia",kochia (Kochia scoparia) [9]; 125 g ai/ha,0
same,"Plant response rating, Kochia",kochia (Kochia scoparia) [9]; 500 g ai/ha,20
same,"Plant response rating, Corn",corn (Zea mays); 125 g ai/ha,0
same,"Plant response rating, Corn",corn (Zea mays); 500 g ai/ha,0
same,Ragweed plant response rating,[10]; 125 g ai/ha,0
same,Ragweed plant response rating,[10]; 500 g ai/ha,20
same,"Plant response rating, Ryegrass, Italian",[11]; 125 g ai/ha,0
same,"Plant response rating, Ryegrass, Italian",[11]; 500 g ai/ha,0
same,Barnyardgrass plant response rating,[12]; 125 g ai/ha,0
same,Barnyardgrass plant response rating,[12]; 500 g ai/ha,0
same,"Plant response rating, Galium",[13]; 125 g ai/ha,0
same,"Plant response rating, Galium",[13]; 500 g ai/ha,10
same,"Plant response rating, Barnyardgrass",[14]; 125 g ai/ha,0
same,"Plant response rating, Barnyardgrass",[14]; 500 g ai/ha,0
same,"Foxtail, Giant plant response rating",[15]; 125 g ai/ha,0
same,"Foxtail, Giant plant response rating",[15]; 500 g ai/ha,0
same,"Plant response rating, Blackgrass",[16]; 125 g ai/ha,0
same,"Plant response rating, Blackgrass",[16]; 500 g ai/ha,0
same,"Plant response rating, Foxtail, Giant",[17]; 125 g ai/ha,0
same,"Plant response rating, Foxtail, Giant",[17]; 500 g ai/ha,0
same,"Plant response rating, Ducksalad (0 to 100 scale, 0 is no effect, 100 is complete control)",[18],0
"C[C@@H](Nc1ncc(C(F)(F)F)c(N)n1)C1Cc2ccccc2C1 [Compound 13, N2-[(1R)-1-(2,3-dihydro-1H-inden-2-yl)ethyl]-5-(trifluoromethyl)-2,4-pyrimidinediamine]",pest or weed control at 125 g/ha,"[1]; Ambrosia artemisiifolia, post-emergence, 240 h, 125 g ai/ha, read-out: Plant response rating, Ragweed",30%
same,pest or weed control at 500 g/ha,"[1]; Ambrosia artemisiifolia, post-emergence, 240 h, 500 g ai/ha, read-out: Plant response rating, Ragweed",80%
same,plant injury at 250 g/ha,"rice (Oryza sativa); Oryza sativa, 360 h, read-out: Plant response rating, Rice (0 to 100 scale, 0 is no effect, 100 is complete control)",10%
same,pest or weed control at 125 g/ha,"[2]; Amaranthus retroflexus, post-emergence, 240 h, 125 g ai/ha, read-out: Plant response rating, Pigweed",100%
same,pest or weed control at 500 g/ha,"[2]; Amaranthus retroflexus, post-emergence, 240 h, 500 g ai/ha, read-out: Plant response rating, Pigweed",100%
same,"Plant response rating, Pigweed",[3]; 125 g ai/ha,100
same,"Plant response rating, Pigweed",[3]; 500 g ai/ha,100
same,pest or weed control at 250 g/ha,"[4]; Cyperus difformis, 360 h, read-out: Plant response rating, Sedge, Umbrella (0 to 100 scale, 0 is no effect, 100 is complete control)",95%
same,pest or weed control at 250 g/ha,"[5]; Echinochloa crus-galli, 360 h, read-out: Plant response rating, Barnyardgrass (0 to 100 scale, 0 is no effect, 100 is complete control)",90%
same,"Plant response rating, Kochia",kochia (Kochia scoparia) [6]; 125 g ai/ha,100
same,"Plant response rating, Kochia",kochia (Kochia scoparia) [6]; 500 g ai/ha,100
same,"Plant response rating, Ryegrass, Italian",[7]; 125 g ai/ha,60
same,"Plant response rating, Ryegrass, Italian",[7]; 500 g ai/ha,100
same,plant injury at 125 g/ha,"[8]; Triticum aestivum, post-emergence, 240 h, 125 g ai/ha, read-out: Plant response rating, Wheat",0%
same,plant injury at 500 g/ha,"[8]; Triticum aestivum, post-emergence, 240 h, 500 g ai/ha, read-out: Plant response rating, Wheat",20%
same,pest or weed control at 125 g/ha,"kochia (Kochia scoparia) [9]; Bassia scoparia, post-emergence, 240 h, 125 g ai/ha, read-out: Plant response rating, Kochia",90%
same,pest or weed control at 500 g/ha,"kochia (Kochia scoparia) [9]; Bassia scoparia, post-emergence, 240 h, 500 g ai/ha, read-out: Plant response rating, Kochia",100%
same,"Corn plant response rating (crop injury, 0 = no effect, 100 = complete kill) at 125 g/ha","corn (Zea mays); Zea mays, post-emergence, 240 h, 125 g ai/ha",10%
same,"Corn plant response rating (crop injury, 0 = no effect, 100 = complete kill) at 500 g/ha","corn (Zea mays); Zea mays, post-emergence, 240 h, 500 g ai/ha",60%
same,"Plant response rating, Ragweed",[10]; 125 g ai/ha,100
same,"Plant response rating, Ragweed",[10]; 500 g ai/ha,100
same,pest or weed control at 125 g/ha,"[11]; Lolium multiflorum, post-emergence, 240 h, 125 g ai/ha, read-out: Plant response rating, Ryegrass, Italian",0%
same,pest or weed control at 500 g/ha,"[11]; Lolium multiflorum, post-emergence, 240 h, 500 g ai/ha, read-out: Plant response rating, Ryegrass, Italian",20%
same,"Plant response rating, Barnyardgrass",[12]; 125 g ai/ha,90
same,"Plant response rating, Barnyardgrass",[12]; 500 g ai/ha,100
same,pest or weed control at 125 g/ha,"[13]; Galium, post-emergence, 240 h, 125 g ai/ha, read-out: Plant response rating, Galium",80%
same,pest or weed control at 500 g/ha,"[13]; Galium, post-emergence, 240 h, 500 g ai/ha, read-out: Plant response rating, Galium",80%
same,pest or weed control at 125 g/ha,"[14]; Echinochloa crus-galli, post-emergence, 240 h, 125 g ai/ha, read-out: Plant response rating, Barnyardgrass",30%
same,pest or weed control at 500 g/ha,"[14]; Echinochloa crus-galli, post-emergence, 240 h, 500 g ai/ha, read-out: Plant response rating, Barnyardgrass",60%
same,"Plant response rating, Foxtail, Giant",[15]; 125 g ai/ha,100
same,"Plant response rating, Foxtail, Giant",[15]; 500 g ai/ha,100
same,pest or weed control at 125 g/ha,"[16]; Alopecurus myosuroides, post-emergence, 240 h, 125 g ai/ha, read-out: Plant response rating, Blackgrass",10%
same,pest or weed control at 500 g/ha,"[16]; Alopecurus myosuroides, post-emergence, 240 h, 500 g ai/ha, read-out: Plant response rating, Blackgrass",30%
same,pest or weed control at 125 g/ha,"[17]; Setaria faberi, post-emergence, 240 h, 125 g ai/ha, read-out: Plant response rating, Foxtail, Giant",80%
same,pest or weed control at 500 g/ha,"[17]; Setaria faberi, post-emergence, 240 h, 500 g ai/ha, read-out: Plant response rating, Foxtail, Giant",100%
same,pest or weed control at 250 g/ha,"[18]; Heteranthera limosa, 360 h, read-out: Plant response rating, Ducksalad (0 to 100 scale, 0 is no effect, 100 is complete control)",75%
